Data reported in ChEMBL document CHEMBL1201861, “Genomics of Drug Sensitity in Cancer screening data, Wellcome Trust Sanger Institute”.

Tests used:
NB1 = experiment: cells; assay type: functional, cell-based, Homo sapiens; conditions: Homo sapiens, NB1
Description: SANGER: Inhibition of human NB1 cell growth in a cell viability assay.

NCI-H1417 = experiment: cells; assay type: functional, cell-based, Homo sapiens; conditions: Homo sapiens, NCI-H1417;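 note: human NCI-H1417 cells, growth inhibition determined with a cell viability readout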
Description: SANGER: Inhibition of human NCI-H1417 cell growth in a cell viability assay.

LC-1F = experiment: cells; assay type: functional, cell-based, Homo sapiens; conditions: Homo sapiens, LC-1F;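 note: growth inhibition of human LC-1F cells, read out with a cell viability assay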
Description: SANGER: Inhibition of human LC-1F cell growth in a cell viability assay.

NCCIT = experiment: SANGER: Inhibition of human NCCIT cell growth in a cell viability assay.; assay type: functional, cell-based; conditions: Homo sapiens, NCCIT
NB14 = experiment: cells; assay type: functional, cell-based, Homo sapiens;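 note: growth inhibition of NB14 cells measured with a cell viability assay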
Description: SANGER: Inhibition of human NB14 cell growth in a cell viability assay.

SU-DHL-1 = experiment: SANGER: Inhibition of human SU-DHL-1 cell growth in a cell viability assay.; assay type: functional, cell-based; conditions: Homo sapiens, SU-DHL-1
RL95-2 = experiment: cells; assay type: functional, cell-based; conditions: Homo sapiens;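 note: RL95-2 growth inhibition determined through a cell viability readout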
Description: SANGER: Inhibition of human RL95-2 cell growth in a cell viability assay.

NCI-H64 = experiment: cells; assay type: functional, cell-based, Homo sapiens; conditions: Homo sapiens, NCI-H64;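 note: growth inhibition of NCI-H64 cells, read out with a cell viability assay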
Description: SANGER: Inhibition of human NCI-H64 cell growth in a cell viability assay.

CMK = experiment: cells; assay type: functional, cell-based, Homo sapiens; conditions: Homo sapiens, CMK;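 note: growth inhibition of CMK cells, read out as cell viability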
Description: SANGER: Inhibition of human CMK cell growth in a cell viability assay.

NCI-H716 = experiment: cells; assay type: functional, cell-based, Homo sapiens; conditions: Homo sapiens, NCI-H716;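 note: growth inhibition of human NCI-H716 cells, measured by a cell viability assay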
Description: SANGER: Inhibition of human NCI-H716 cell growth in a cell viability assay.

TE-15 = experiment: cells; assay type: functional, cell-based, Homo sapiens; conditions: Homo sapiens, TE-15;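 note: cell viability readout of growth inhibition in TE-15 cells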
Description: SANGER: Inhibition of human TE-15 cell growth in a cell viability assay.

CP50-MEL-B = experiment: cells; assay type: functional, cell-based, Homo sapiens; conditions: cp50-mel-b;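 note: growth inhibition of the human cell line, measured with a cell viability read-out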
Description: SANGER: Inhibition of human CP50-MEL-B cell growth in a cell viability assay.

C3A = experiment: cells; assay type: functional, cell-based, Homo sapiens; conditions: c3a;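 note: growth inhibition of C3A human cells, quantified with a cell viability readout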
Description: SANGER: Inhibition of human C3A cell growth in a cell viability assay.

CAL-39 = experiment: cells; assay type: functional, cell-based, Homo sapiens; conditions: cal-39;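 note: cell viability assay measuring growth inhibition of CAL-39 cells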
Description: SANGER: Inhibition of human CAL-39 cell growth in a cell viability assay.

HEC-1 = experiment: cells; assay type: functional, cell-based, Homo sapiens; conditions: hec-1;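 note: growth inhibition of the cell line, read out with a cell viability assay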
Description: SANGER: Inhibition of human HEC-1 cell growth in a cell viability assay.

SW756 = experiment: cells; assay type: functional, cell-based, Homo sapiens; conditions: sw756;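 note: growth inhibition of human SW756 cells, read out with a cell viability assay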
Description: SANGER: Inhibition of human SW756 cell growth in a cell viability assay.

LN-405 = experiment: cells; assay type: functional, cell-based, Homo sapiens; conditions: ln-405
Description: SANGER: Inhibition of human LN-405 cell growth in a cell viability assay.

LCLC-97TM1 = experiment: cells; assay type: functional, cell-based, Homo sapiens; conditions: lclc-97tm1;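 note: cell viability assay measuring growth inhibition of human LCLC-97TM1 cells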
Description: SANGER: Inhibition of human LCLC-97TM1 cell growth in a cell viability assay.

SW48 = experiment: cells; assay type: functional, cell-based, Homo sapiens; conditions: sw48;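 note: growth inhibition of SW48 cells, read out with a cell viability assay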
Description: SANGER: Inhibition of human SW48 cell growth in a cell viability assay.

ZR-75-30 = experiment: cells; assay type: functional, cell-based, Homo sapiens; conditions: zr-75-30;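 note: growth inhibition of ZR-75-30 cells, measured with a cell viability readout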
Description: SANGER: Inhibition of human ZR-75-30 cell growth in a cell viability assay.

UACC-62 = experiment: cells; assay type: functional, cell-based, Homo sapiens; conditions: uacc-62;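 note: growth inhibition of human UACC-62 cells, read out by a cell viability assay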
Description: SANGER: Inhibition of human UACC-62 cell growth in a cell viability assay.

T-24 = experiment: cells; assay type: functional, cell-based, Homo sapiens; conditions: t-24;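 note: growth inhibition of T-24 cells, read out with a cell viability assay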
Description: SANGER: Inhibition of human T-24 cell growth in a cell viability assay.

HTC-C3 = experiment: cells; assay type: functional, cell-based, Homo sapiens; conditions: htc-c3;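 note: inhibition of cell growth, read out with a cell viability assay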
Description: SANGER: Inhibition of human HTC-C3 cell growth in a cell viability assay.

HCC38 = experiment: cells; assay type: functional, cell-based, Homo sapiens; conditions: hcc38;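 note: cell viability assay on the human HCC38 cell line, with IC50 marking the concentration that inhibits cell growth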
Description: SANGER: Inhibition of human HCC38 cell growth in a cell viability assay.

SW780 = experiment: cells; assay type: functional, cell-based, Homo sapiens; conditions: sw780;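 note: growth inhibition of the cells, read out with a cell viability assay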
Description: SANGER: Inhibition of human SW780 cell growth in a cell viability assay.

VM-CUB-1 = experiment: cells; assay type: functional, cell-based, Homo sapiens; conditions: vm-cub-1;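 note: cell viability assay measuring growth inhibition of the human VM-CUB-1 cell line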
Description: SANGER: Inhibition of human VM-CUB-1 cell growth in a cell viability assay.

NCI-H1993 = experiment: cells; assay type: functional, cell-based, Homo sapiens; conditions: nci-h1993;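 note: growth inhibition of the cancer cell line, assessed with a cell viability assay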
Description: SANGER: Inhibition of human NCI-H1993 cell growth in a cell viability assay.

HCT-15 = experiment: cells; assay type: functional, cell-based, Homo sapiens; conditions: hct-15;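 note: cell viability readout, IC50 reflecting suppression of HCT-15 cell growth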
Description: SANGER: Inhibition of human HCT-15 cell growth in a cell viability assay.

HuO-3N1 = experiment: cells; assay type: functional, cell-based, Homo sapiens; conditions: huo-3n1;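 note: cell viability readout used to measure how strongly compounds suppress proliferation of human HuO-3N1 cells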
Description: SANGER: Inhibition of human HuO-3N1 cell growth in a cell viability assay.

NCI-H358 = experiment: cells; assay type: functional, cell-based, Homo sapiens; conditions: nci-h358;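 note: growth inhibition of NCI-H358 human cells, read out with a cell viability assay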
Description: SANGER: Inhibition of human NCI-H358 cell growth in a cell viability assay.

LU-99A = experiment: cells; assay type: functional, cell-based, Homo sapiens; conditions: lu-99a;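 note: growth inhibition of LU-99A cells, read out with a cell viability assay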
Description: SANGER: Inhibition of human LU-99A cell growth in a cell viability assay.

CAL-51 = experiment: cells; assay type: functional, cell-based, Homo sapiens; conditions: cal-51;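 note: human CAL-51 cell line, growth inhibition read out via a cell viability assay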
Description: SANGER: Inhibition of human CAL-51 cell growth in a cell viability assay.

BHT-101 = experiment: cells; assay type: functional, cell-based, Homo sapiens; conditions: bht-101
Description: SANGER: Inhibition of human BHT-101 cell growth in a cell viability assay.

SAS = experiment: cells; assay type: functional, cell-based, Homo sapiens; conditions: sas;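 note: growth inhibition of SAS cells, read out with a cell viability assay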
Description: SANGER: Inhibition of human SAS cell growth in a cell viability assay.

GMS-10 = experiment: cells; assay type: functional, cell-based, Homo sapiens; conditions: gms-10;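 note: growth inhibition of GMS-10 cells, read out as cell viability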
Description: SANGER: Inhibition of human GMS-10 cell growth in a cell viability assay.

Ca9-22 = experiment: cells; assay type: functional, cell-based, Homo sapiens; conditions: ca9-22;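 note: growth inhibition of Ca9-22 cells, read out with a cell viability assay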
Description: SANGER: Inhibition of human Ca9-22 cell growth in a cell viability assay.

CAL-62 = experiment: cells; assay type: functional, cell-based, Homo sapiens; conditions: cal-62;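 note: growth inhibition of CAL-62 cells, read out with a cell viability assay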
Description: SANGER: Inhibition of human CAL-62 cell growth in a cell viability assay.

KYSE-510 = experiment: cells; assay type: functional, cell-based, Homo sapiens; conditions: kyse-510;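 note: cell viability readout used to measure how strongly growth of the cell line is suppressed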
Description: SANGER: Inhibition of human KYSE-510 cell growth in a cell viability assay.

MKN-1 = experiment: cells; assay type: functional, cell-based, Homo sapiens; conditions: mkn-1;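 note: growth inhibition of human MKN1 cells, read out by a cell viability measurement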
Description: SANGER: Inhibition of human MKN1 cell growth in a cell viability assay.

S-117 = experiment: cells; assay type: functional, cell-based, Homo sapiens; conditions: s-117
Description: SANGER: Inhibition of human S-117 cell growth in a cell viability assay.

NCI-H1623 = experiment: cells; assay type: functional, cell-based, Homo sapiens; conditions: nci-h1623;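 note: cell viability assay used as the read-out for growth inhibition of NCI-H1623 cells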
Description: SANGER: Inhibition of human NCI-H1623 cell growth in a cell viability assay.

IGROV-1 = experiment: cells; assay type: functional, cell-based, Homo sapiens; conditions: igrov-1;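 note: reduction of IGROV-1 cell growth, read out with a viability assay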
Description: SANGER: Inhibition of human IGROV-1 cell growth in a cell viability assay.

H4 = experiment: cells; assay type: functional, cell-based, Homo sapiens; conditions: h4
Description: SANGER: Inhibition of human H4 cell growth in a cell viability assay.

639-V = experiment: cells; assay type: functional, cell-based, Homo sapiens; conditions: 639-v;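 note: growth inhibition of 639-V cells, read out with a cell viability assay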
Description: SANGER: Inhibition of human 639-V cell growth in a cell viability assay.

CaR-1 = experiment: cells; assay type: functional, cell-based, Homo sapiens; conditions: car-1;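 note: growth inhibition of human CaR-1 cancer cells, read out with a cell viability assay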
Description: SANGER: Inhibition of human CaR-1 cell growth in a cell viability assay.

HN = experiment: cells; assay type: functional, cell-based, Homo sapiens; conditions: hn
Description: SANGER: Inhibition of human HN cell growth in a cell viability assay.

NCI-H1793 = experiment: cells; assay type: functional, cell-based, Homo sapiens; conditions: nci-h1793;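 note: cell growth inhibition, read out by a cell viability assay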
Description: SANGER: Inhibition of human NCI-H1793 cell growth in a cell viability assay.

PANC-03-27 = experiment: cells; assay type: functional, cell-based, Homo sapiens; conditions: panc-03-27
Description: SANGER: Inhibition of human PANC-03-27 cell growth in a cell viability assay.

NCI-H661 = experiment: cells; assay type: functional, cell-based, Homo sapiens; conditions: nci-h661;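 note: cell viability assay read-out, IC50 being the concentration that inhibits growth of the cells by half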
Description: SANGER: Inhibition of human NCI-H661 cell growth in a cell viability assay.

With COc1cc2ncn(-c3cc(OCc4ccccc4S(C)(=O)=O)c(C#N)s3)c2cc1OC [GSK-319347A] the IC50 (NB1) was > 5 µM, the IC50 (NCI-H1417) was > 5 µM and the IC50 (LC-1F) was > 5 µM. For the same molecule, the IC50 (NCCIT) was > 5 µM, the IC50 (NB14; Homo sapiens, NB14) was > 5 µM and the IC50 (SU-DHL-1) was > 5 µM. The IC50 (RL95-2) was > 5 µM, the IC50 (NCI-H64) was > 5 µM and the IC50 (CMK) was > 5 µM. For the same molecule, the IC50 (NCI-H716) was > 5 µM and the IC50 (TE-15) was > 5 µM.
For COc1cc2ncn(-c3cc(OCc4ccccc4C(F)(F)F)c(C(N)=O)s3)c2cc1OC [GW843682X], the IC50 (NB1) was 0.0351 µM, the IC50 (NCI-H1417) was > 0.256 µM and the IC50 (LC-1F) was > 0.256 µM. For the same molecule, the IC50 (NCCIT) was 0.0599 µM, the IC50 (NB14; Homo sapiens, NB14) was > 0.256 µM and the IC50 (SU-DHL-1) was 0.0943 µM. The IC50 (RL95-2) was 0.0113 µM, the IC50 (NCI-H64) was > 0.256 µM and the IC50 (CMK) was 0.036 µM. For the same molecule, the IC50 (NCI-H716) was > 0.256 µM and the IC50 (TE-15) was 0.0108 µM.
For CC(=O)O[C@H]1C(=O)[C@@]2(C)[C@H]([C@H](OC(=O)c3ccccc3)[C@]3(O)C[C@H](OC(=O)[C@H](O)[C@@H](NC(=O)c4ccccc4)c4ccccc4)C(C)=C1C3(C)C)[C@]1(OC(C)=O)CO[C@@H]1C[C@@H]2O [PACLITAXEL], the IC50 (NB1) was 0.0269 µM, the IC50 (NCI-H1417) was > 0.102 µM and the IC50 (LC-1F) was > 0.102 µM. The IC50 (NCCIT) was 0.0177 µM, the IC50 (NB14; Homo sapiens, NB14) was > 0.102 µM and the IC50 (SU-DHL-1) was > 0.102 µM. For the same molecule, the IC50 (RL95-2) was 0.000668 µM, the IC50 (NCI-H64) was 0.0386 µM and the IC50 (CMK) was 0.0273 µM. The IC50 (NCI-H716) was > 0.102 µM and the IC50 (TE-15) was 0.000287 µM.
For N[C@@H](CSC(c1ccccc1)(c1ccccc1)c1ccccc1)C(=O)O [S-TRITYL-L-CYSTEINE], the IC50 (NB1) was 2.94 µM, the IC50 (NCI-H1417) was > 5.12 µM and the IC50 (LC-1F) was 3.49 µM. The IC50 (NCCIT) was 2.39 µM, the IC50 (NB14; Homo sapiens, NB14) was > 5.12 µM and the IC50 (SU-DHL-1) was > 5.12 µM. For the same molecule, the IC50 (RL95-2) was 0.605 µM, the IC50 (NCI-H64) was 3.48 µM and the IC50 (CMK) was 1.56 µM. For the same molecule, the IC50 (NCI-H716) was > 5.12 µM and the IC50 (TE-15) was 1.02 µM.
CC[C@H](CO)Nc1nc(NCc2ccccc2)c2ncn(C(C)C)c2n1 [SELICICLIB] was tested, and the IC50 (NB1) was 12.3 µM, the IC50 (NCI-H1417) was > 16 µM and the IC50 (LC-1F) was > 16 µM. The IC50 (NCCIT) was 7.55 µM, the IC50 (NB14; Homo sapiens, NB14) was > 16 µM and the IC50 (SU-DHL-1) was > 16 µM. For the same molecule, the IC50 (RL95-2) was > 16 µM, the IC50 (NCI-H64) was > 16 µM and the IC50 (CMK) was > 16 µM. For the same molecule, the IC50 (NCI-H716) was > 16 µM and the IC50 (TE-15) was > 16 µM.
With CCN(CC)CCNC(=O)c1c(C)[nH]c(/C=C2\C(=O)Nc3ccc(F)cc32)c1C [SUNITINIB] the IC50 (NB1) was 1.96 µM, the IC50 (NCI-H1417) was > 8 µM and the IC50 (LC-1F) was > 8 µM. For the same molecule, the IC50 (NCCIT) was > 8 µM, the IC50 (NB14; Homo sapiens, NB14) was > 8 µM and the IC50 (SU-DHL-1) was 4.8 µM. For the same molecule, the IC50 (RL95-2) was 2.11 µM, the IC50 (NCI-H64) was > 8 µM and the IC50 (CMK) was 1.96 µM. For the same molecule, the IC50 (NCI-H716) was > 8 µM and the IC50 (TE-15) was 0.508 µM.
Work on CISPLATIN yielded an IC50 (CP50-MEL-B) of 217 µM, an IC50 (C3A) of 407 µM and an IC50 (CAL-39) of 287 µM. It also gave an IC50 (HEC-1) of 13.3 µM, an IC50 (SW756) of 9.26 µM and an IC50 (LN-405) of 15.5 µM. The IC50 (NB14; nb14) was 171 µM, the IC50 (LCLC-97TM1) was 19.8 µM and the IC50 (SW48) was 9.22 µM. For the same molecule, the IC50 (ZR-75-30) was 72.2 µM, the IC50 (UACC-62) was 12.4 µM and the IC50 (T-24) was 5.56 µM. The IC50 (HTC-C3) was 4.49 µM, the IC50 (HCC38) was 160 µM and the IC50 (SW780) was 14 µM. For the same molecule, the IC50 (VM-CUB-1) was 6.3 µM, the IC50 (NCI-H1993) was 1350 µM and the IC50 (HCT-15) was 267 µM. It also gave an IC50 (HuO-3N1) of 8.87 µM, an IC50 (NCI-H358) of 195 µM and an IC50 (LU-99A) of 4.29 µM. The IC50 (CAL-51) was 16.4 µM, the IC50 (BHT-101) was 5.82 µM and the IC50 (SAS) was 18.5 µM. It also gave an IC50 (GMS-10) of 85.2 µM, an IC50 (Ca9-22) of 10.4 µM and an IC50 (CAL-62) of 301 µM. The IC50 (KYSE-510) was 3.38 µM, the IC50 (MKN-1) was 42.1 µM and the IC50 (S-117) was 4.53 µM. It also gave an IC50 (NCI-H1623) of 46.9 µM, an IC50 (IGROV-1) of 0.343 µM and an IC50 (H4) of 4.71 µM. For the same molecule, the IC50 (639-V) was 5.89 µM, the IC50 (CaR-1) was 755 µM and the IC50 (HN) was 36 µM. For the same molecule, the IC50 (NCI-H1793) was 19.1 µM, the IC50 (PANC-03-27) was 38.3 µM and the IC50 (NCI-H661) was 13.6 µM.
